Experimental findings from US20250145598A1, “ACID CERAMIDASE INHIBITORS AND USES THEREOF” (The Regents of the University of California, priority 2021, published 2025) are described below.

SMILES strings stand for the structures. A value given as a limit tells only on which side of the number the result lay.

The target of this assay is T1, Acid ceramidase (Homo sapiens, UniProt Q13510).
T1 sequence (Q13510 22-395): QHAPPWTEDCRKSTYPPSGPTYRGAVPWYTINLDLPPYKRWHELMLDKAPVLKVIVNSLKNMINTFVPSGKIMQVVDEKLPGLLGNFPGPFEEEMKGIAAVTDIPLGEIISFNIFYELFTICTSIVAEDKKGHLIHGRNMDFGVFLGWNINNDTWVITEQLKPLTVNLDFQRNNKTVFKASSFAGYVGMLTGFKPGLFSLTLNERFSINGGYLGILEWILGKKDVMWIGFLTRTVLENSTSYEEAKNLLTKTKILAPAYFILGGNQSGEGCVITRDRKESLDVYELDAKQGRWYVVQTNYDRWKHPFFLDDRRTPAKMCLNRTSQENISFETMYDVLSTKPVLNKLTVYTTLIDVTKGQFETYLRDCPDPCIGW
Nature of the assay: Acid ceramidase assay (AC in vitro IC50). The class given is biochemical. Particulars: Acid ceramidase assay data of example compounds.
Take `C[C@H](Oc1ccc(-c2cn(C(=O)NCCCOc3ccccc3)cn2)cc1)c1ccc(S(C)(=O)=O)cc1` (single isomer, unassigned) [AC2020601-0348]: the IC50 is less than 300 nM. The value for `C[C@@H](Oc1ccc(-c2cn(C(=O)NCCCOc3ccccc3)cn2)cc1)c1ccc(S(C)(=O)=O)cc1` (single isomer, unassigned) [AC2020601-0349] was less than 300 nM; that for `CS(=O)(=O)c1ccc(COc2ccc(-c3cn(C(=O)NC[C@@H]4CCN(c5ccccc5)C4)cn3)cc2)cc1` (single isomer, unassigned) [AC2020601-0384a] was less than 300 nM. In the case of `CS(=O)(=O)c1ccc(COc2ccc(-c3cn(C(=O)NC[C@H]4CCN(c5ccccc5)C4)cn3)cc2)cc1` (single isomer, unassigned) [AC2020601-0384b] it was less than 300 nM; in that of `CCCCCCNC(=O)n1cnc(-c2ccccc2OCc2ccccc2)c1` [AC2020601-0199, 4-(2-(benzyloxy)phenyl)-N-hexyl-1H-imidazole-1-carboxamide], less than 300 nM; in that of `O=C(NCC1CC1)n1cnc(-c2ccc(OCc3ccc(F)cc3)cc2)c1` [AC2020601-0206, N-(cyclopropylmethyl)-4-(4-(4-fluorobenzyloxy)Vphenyl)-1H-imid azole-1-carboxamide], less than 300 nM. The molecule `CS(=O)(=O)c1ccc(COc2ccc(-c3cn(C(=O)NCCCCc4ccccc4)cn3)cc2)cc1` [AC2020601-0243, 4-(4-((4-(methylsulfonyl)benzyl)oxy)phenyl)-N-(4-phenylbutyl)-1H-imidazole-1-carboxamide] displayed an IC50 of less than 300 nM.

For the molecule `O=C(NCCCCc1ccccc1)n1cnc(-c2ccc(OCc3cccc(N4CCOCC4)c3)cc2)c1` [AC2020601-0245, 4-(4-((3-morpholinobenzyl)oxy)phenyl)-N-(4-phenylbutyl)-1H-imidazole-1-carboxamide], the IC50 is less than 300 nM. Consider `NC(=O)c1cccc(COc2ccc(-c3cn(C(=O)NCCCCc4ccccc4)cn3)cc2)c1` [AC2020601-0246, 4-(4-((3-carbamoylbenzyl)oxy)phenyl)-N-(4-phenylbutyl)-1H-imidazole-1-carboxamide], for which the IC50 was less than 300 nM. In the case of `N#Cc1cccc(COc2ccc(-c3cn(C(=O)NCCCCc4ccccc4)cn3)cc2)c1` [AC2020601-0275, 4-(4-((3-cyanobenzyl)oxy)phenyl)-N-(4-phenylbutyl)-1H-imidazole-1-carboxamide] it was less than 300 nM; in that of `O=C(NCCCCc1ccccc1)n1cnc(-c2ccc(OCc3cccnc3)cc2)c1` [AC2020601-0276, N-(4-phenylbutyl)-4-(4-(pyridin-3-ylmethoxy)phenyl)-1H-imidazole-1-carboxamide], less than 300 nM; in that of `CN(CCCCc1ccccc1)C(=O)n1cnc(-c2ccc(OCc3ccccc3)cc2)c1` [AC2020601-0278, 4-(4-(benzyloxy)phenyl)-N-methyl-N-(4-phenylbutyl)-1H-imidazole-1-carboxamide], greater than 3000 nM. In the case of `NS(=O)(=O)c1ccc(COc2ccc(-c3cn(C(=O)NCCCCc4ccccc4)cn3)cc2)cc1` [AC2020601-0284, N-(4-phenylbutyl)-4-(4-((4-sulfamoylbenzyl)oxy)phenyl)-1H-imidazole-1-carboxamide] it was less than 300 nM. In the case of `CS(=O)(=O)c1ccc(COc2ccc(-c3cn(C(=O)NCCCOc4ccccc4)cn3)cc2)cc1` [AC2020601-0294, 4-(4-((4-(methylsulfonyl)benzyl)oxy)phenyl)-N-(3-phenoxypropyl)-1H-imidazole-1-carboxamide] it was less than 300 nM; in that of `CS(=O)(=O)c1ccc(COc2ccc(-c3cn(C(=O)NCC4CC4)cn3)cc2)cc1` [AC2020601-0295, N-(cyclopropylmethyl)-4-(4-((4-(methylsulfonyl)benzyl)oxy)phenyl)-1H-imidazole-1-carboxamide], less than 300 nM; in that of `CCCCCCNC(=O)n1cnc(-c2ccc(OCc3ccc(S(C)(=O)=O)cc3)cc2)c1` [AC2020601-0296, N-hexyl-4-(4-((4-(methylsulfonyl)benzyl)oxy)phenyl)-1H-imidazole-1-carboxamide], less than 300 nM.
